Assay results from paper PMC4007625, “A phase I study of AST1306, a novel irreversible EGFR and HER2 kinase inhibitor, in patients with advanced solid tumors” (Journal of Hematology & Oncology, 2014).
Like-named read-outs stand apart in the source and are kept apart here.

How the values were obtained:
[1] = tested on: human tumor xenograft models that expressed or overexpressed HER family members; parameters: method as in PMID 21789172; details: especially HER2 overexpression or EGFR T790M mutant tumors; cited from earlier work
advanced solid tumors = assay: Antitumor activity by RECIST 1.0; assay type: in vivo, human
Method: Antitumor activity was assessed by tumor measurements according to RECIST 1.0 and performed at 8-week intervals. The primary efficacy endpoint was progression free survival (PFS), which was defined as the time from the first administration until disease progression or death. Overall survival (OS) and response rate were also assessed. Clinical benefit rate was measured and defined as the proportion of patients with complete response, partial response and stable disease (SD) ≥ 6 months.

EGFR T790M mutant = tested on: EGFR T790M mutant; parameters: method as in PMID 21789172, PMID 18408761, PMID 15728811, PMID 15737014, PMID 17085664; details: cited from earlier work
[2] = Food-effect study, two-way crossover, single dose; assay type: in vivo, human; details: for apparent oral clearance (CL/F) / Tmax / AUC(0-inf) / AUC(0-t) / Cmax / half-life: 1000 mg single oral dose; for apparent oral clearance (CL/F) / AUC(0-inf) / AUC(0-t) / Cmax / half-life: geometric mean (range); for Tmax / AUC(0-inf) / AUC(0-t) / Cmax / half-life: plasma, po; for Tmax: (range); for half-life: read-out: t1/2z (converted)
Method: Figure S1). On day 1, 6 subjects were fasted and 6 were fed, and all 12 subjects received a single dose of AST1306. […] On “fasting” days (day 1 or 4), subjects were required to fast for a minimum of 2 h prior to dosing, and for at least 1 h post-dosing. […] PK sampling then took place on day 1 and day 4. The PK sampling time points were pre-dose, 0.5, 1, 1.5, 2, 2.5, 3, 4, 6, 8, 12, and 24 hours after dosing. The power model method was used to assess the dose proportionality.

[3] = Phase I dose escalation: safety, tolerability, DLT and MTD (CTC-AE 4.03); assay type: in vivo
Method: This was the first-in-human phase I dose-escalation study of AST1306 for patients with advanced solid tumors. AST1306 was orally administered without food for one day followed by two days off to evaluate single dose PK profiles. After that, it was continuously administered for 21 days and two days off to assess multiple dose PK profiles and safety. […] Three times daily in three dose levels (800 mg TID, 1000 mg TID and 1200 mg TID) were explored subsequently. Treatment was then repeated at the same dose level in 28-day cycles until unacceptable toxicities, disease progression or the patient’s withdrew from the study. PK extension study was performed to enroll additional patients up to at least eight patients per dose cohort in three dose levels (MTD, one or two doses level lower than the MTD) for further evaluation of PK profiles.
Safety and tolerability were evaluated and assessed by investigators throughout the study and up to 14 days after the final dose of AST1306 according to Common Terminology Criteria for Adverse Events (CTC-AE) version 4.03. Laboratory evaluations and electrocardiogram were conducted at screening; every week of first and second cycles; every two weeks of third cycle and every four weeks of subsequent cycles. AEs assessment, vital signs, physical examinations and echocardiography were performed.
A modified Fibonacci 3 plus 3 dose-escalation design was employed. Tolerability was evaluated according to the type and frequency of DLTs observed from single-day-dose administration until day 21 of the first cycle of continuous dosing. DLTs were defined as follows: grade ≥ 3 non-hematologic toxicity (except nausea, vomiting and diarrhea); grade ≥ 3 nausea, vomiting or diarrhea uncontrollable with standard supportive care; grade 4 neutropenia or febrile neutropenia; and grade 4 thrombocytopenia or bleeding requiring a platelet transfusion. If two or more patients experienced DLTs in three to six patients for each cohort, dose escalation was terminated and the dose level below was defined as the MTD.
Dose interruptions were permitted for no more than 14 days for patients experiencing DLTs in the first cycle or intolerable toxicities in the subsequent cycles, with treatment resumed at the next lower dose level upon adequate recovery (grade ≤ 1). More than two dose level reductions were not allowed.
Patients in the PK extension study and food-effect study were also included to evaluate safety further.

[4] = human, 1000 mg, fed, high-fat breakfast (n =12)

C=CC(=O)Nc1ccc2ncnc(Nc3ccc(OCc4cccc(F)c4)c(Cl)c3)c2c1 [AST1306]
antitumor activity in xenograft models [1]: showed antitumor activities
median OS (advanced solid tumors; 12 NSCLC patients): not yet been reached
median PFS (advanced solid tumors; 12 NSCLC patients): 3.6 months
median OS (advanced solid tumors; 17 breast cancer patients): 17.7 (95% CI, 16.1–19.3) months
median PFS (advanced solid tumors; 17 breast cancer patients): 5.5 (95% CI, 3.2–7.9) months
confirmed PR, % of patients (advanced solid tumors; 55 evaluable patients): 12.7%
confirmed partial responses, patients (advanced solid tumors; 55 evaluable patients): 7
stable disease ≥ 6 months, patients (advanced solid tumors; 55 evaluable patients): 7
confirmed PR, patients (advanced solid tumors; NSCLC, 12 evaluable): 1
confirmed PR, patients (advanced solid tumors; breast cancer, 17 evaluable, all responders HER2 positive): 5
confirmed PR, patients (advanced solid tumors; gastric cancer): 1
fold more potent than lapatinib (EGFR T790M mutant; EGFR T790M mutant): approximately 500 fold
IC50 (EGFR T790M mutant; preclinical): 12 ± 2 nM
apparent oral clearance (CL/F) ([2]; fasted (n =12)): 3970 (1370-8890) L/h
apparent oral clearance (CL/F) ([2]; fed, high-fat breakfast (n =12)): 1360 (608-2340) L/h
Treatment ratio fed/fasted, AUC0-∞ ([2]; human, in vivo, 1000 mg): 269 (208-348) %
Treatment ratio fed/fasted, AUC0–t ([2]; human, in vivo, 1000 mg): 284 (219-368) %
Treatment ratio fed/fasted, Cmax ([2]; human, in vivo, 1000 mg): 228 (170-305) %
Tmax ([2]; human, 1000 mg, fasted (n =12)): 2.38 h
AUC(0-inf) ([2]; human, 1000 mg, fasted (n =12)): 331 ng·h/mL
AUC(0-t) ([2]; human, 1000 mg, fasted (n =12)): 311 ng·h/mL
Cmax ([2]; human, 1000 mg, fasted (n =12)): 70.3 ng/mL
half-life ([2]; human, 1000 mg, fasted (n =12)): 6.99 h
Tmax [2, 4]: 4.25 h
AUC(0-inf) [2, 4]: 814 ng·h/mL
AUC(0-t) [2, 4]: 797 ng·h/mL
Cmax [2, 4]: 139 ng/mL
half-life [2, 4]: 4.19 h
MTD ([3]; TID, continuous-dosing schedule, oral): 1000 mg
Anorexia grade 3, treatment-related AE, patients ([3]; human, in vivo): 0
Fatigue grade 3, treatment-related AE, % of patients ([3]; human, in vivo): 0%
Fatigue grade 3, treatment-related AE, patients ([3]; human, in vivo): 0
Hand-foot syndrome grade 3, treatment-related AE, % of patients ([3]; human, in vivo): 0%
Hand-foot syndrome grade 3, treatment-related AE, patients ([3]; human, in vivo): 0
Proteinuria grade 3, treatment-related AE, % of patients ([3]; human, in vivo): 0%
Proteinuria grade 3, treatment-related AE, patients ([3]; human, in vivo): 0
Vomiting grade 3, treatment-related AE, % of patients ([3]; human, in vivo): 0%
Vomiting grade 3, treatment-related AE, patients ([3]; human, in vivo): 0
discontinuation from treatment due to diarrhea, % of patients ([3]; human, in vivo): 7%
discontinuation from treatment due to diarrhea, patients ([3]; human, in vivo): 5
discontinuation from treatment due to hypokalemia, patients ([3]; human, in vivo): 1
grade 3 drug-related abdominal pain, % of patients ([3]; human, in vivo): 1.4%
grade 3 drug-related abdominal pain, patients ([3]; human, in vivo): 1
grade 3 drug-related anemia, % of patients ([3]; human, in vivo): 1.4%
grade 3 drug-related anemia, patients ([3]; human, in vivo): 1
grade 3 drug-related diarrhea, % of patients ([3]; human, in vivo): 32.4%
grade 3 drug-related diarrhea, patients ([3]; human, in vivo): 23
grade 3 drug-related elevated ALT or AST, % of patients ([3]; human, in vivo): 4.2%
grade 3 drug-related elevated ALT or AST, patients ([3]; human, in vivo): 3
grade 3 drug-related hypokalemia, % of patients ([3]; human, in vivo): 1.4%
grade 3 drug-related hypokalemia, patients ([3]; human, in vivo): 1
grade 3 drug-related rash, % of patients ([3]; human, in vivo): 1.4%
grade 3 drug-related rash, patients ([3]; human, in vivo): 1
grade 3 study drug-related AEs, % of patients ([3]; human, in vivo): 39.4%
grade 3 study drug-related AEs, patients ([3]; human, in vivo): 28
grade 4 to 5 AEs ([3]; human, in vivo): no observed grade 4 to 5 AEs
patients with serious AEs (SAE) ([3]; human, in vivo): 8
treatment-related diarrhea, % of patients ([3]; human, in vivo): 85.9%
treatment-related diarrhea, patients ([3]; human, in vivo): 61
treatment-related fatigue, % of patients ([3]; human, in vivo): 19.7%
treatment-related fatigue, patients ([3]; human, in vivo): 14
treatment-related rash, % of patients ([3]; human, in vivo): 16.9%
treatment-related rash, patients ([3]; human, in vivo): 12
patients with DLT (grade 3 diarrhea) ([3]; human, in vivo, 21 days): 5
recommended phase II dose (RP2D) ([3]; human, in vivo, po, 21 days): 1000 mg
decline in LVEF ([3]; in vivo): no significant decline in LVEF
patients with dose reductions (all due to diarrhea) ([3]; in vivo): Seven
patients with study drug-related AEs ([3]; in vivo): Sixty-eight
